The test system of this series is Mia Paca II tumors. Put plainly: Mia Paca II tumors in NMRI nu/nu mice. The format is in vivo. The protocol: Delivery of oligonucleotide was continuous for 14 days. The dosage of oligonucleotide was 10 mg/kg/day. Each sample set contained three mice. Tumor volume was measured regularly and after two weeks, the tumors were taken out and weighed.

For the substance “ISIS 12790: phosphorothioate oligodeoxynucleotide TGGTCTGCAGTTAGGGTCAG, SEQ ID NO 15, 3'-UTR 2230-2249, non-allele specific (DNA, all phosphorothioate, methylation of C not given here)”, the “effect on tumor progression” value (10 mg/kg/day for 14 days) was “delayed tumor progression over the two week period compared to a saline control”. For the same substance, under “after two weeks, 10 mg/kg/day, saline control 297 mg”, the “average final weight of the tumors” value was determined as 161 mg. Further, the Tumor volume reads like this: (day 0, 10 mg/kg/day osmotic minipump) 134 mm^3; (day 1, 10 mg/kg/day osmotic minipump) 186 mm^3; (day 2, 10 mg/kg/day osmotic minipump) 220 mm^3; (day 6, 10 mg/kg/day osmotic minipump) 252 mm^3; (day 7, 10 mg/kg/day osmotic minipump) 290 mm^3; (day 9, 10 mg/kg/day osmotic minipump) 370 mm^3. For the same substance, the Tumor volume (day 13, 10 mg/kg/day osmotic minipump) was found to be 358 mm^3 and the Tumor volume (day 14, 10 mg/kg/day osmotic minipump) came out at 331 mm^3. For the setting “two week period, compared to saline control”, the “inhibition of tumor growth” value is given as “approximately 40%”.
